Structures are written as SMILES. Values after ≈ are worked out from the molar mass of the structure shown. Like-named read-outs stand apart in the source and are kept apart here. Where only a bound is given, the exact number is not on record here.

From patent publication US9234000B2, “Benzylamine derivatives as inhibitors of plasma kallikrein” (KalVista Pharmaceuticals Limited, priority 2011, dated 2016) come the findings set out here.

Data set [1] deals with Factor XIIa (Homo sapiens (Human), UniProt P00748). Put plainly: Determination of enzyme selectivity: Factor XIIa. The format is biochemical. As to conditions: fluorogenic substrate at Km concentration. The method, then:
Determination of Enzyme Selectivity
Human serine protease enzymes plasmin, thrombin, trypsin, Factor Xa and Factor XIIa were assayed for enzymatic activity using an appropriate fluorogenic substrate. Protease activity was measured by monitoring the accumulation of liberated fluorescence from the substrate over 5 minutes. The linear rate of fluorescence increase per minute was expressed as percentage (%) activity. The Km for the cleavage of each substrate was determined by standard transformation of the Michaelis-Menten equation.

Data set [2] addresses Human plasma kallikrein (Homo sapiens (Human), UniProt P03952). In words: Determination of the IC50 for plasma kallikrein. Type of data set: biochemical. The settings on record: 37° C., read-out: IC50 (human PKal). Summed up:
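Residual activity (initial rate, absorbance at 410 nm) gave the IC50. Reactions at 37° C combined human plasma kallikrein, substrate H-DPro-Phe-Arg-AFC and a range of inhibitor concentrations.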

Data set [3] deals with Human KLK1 (Homo sapiens (Human), UniProt P06870). In words: Determination of the IC50 for KLK1. As to conditions: Human KLK1, 37° C., substrate H-DVal-Leu-Arg-AFC. The format is biochemical. Summed up:
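Human KLK1 incubated at 37 °C with fluorogenic substrate H-DVal-Leu-Arg-AFC and a range of test compound concentrations. Residual activity was taken as initial reaction rate from absorbance change at 410 nm, and the IC50 derived from it.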

A short description of data set [4]: Determination of thermodynamic solubility in phosphate buffer. The format is physicochemical. The settings on record: pH 7.4, aqueous buffer, thermodynamic from solid, ammonium phosphate buffer pH7.4, 290 mOsm, 37° C., nominal 1 mg/mL, read-out: Solubility in PO4 buffer. Summed up: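 Compound at nominal 1 mg/mL in ammonium phosphate buffer (pH7.4, 290 mOsm), shaken 1 h at 37° C., then centrifuged 15,000 g for 10 minutes at 37° C. Supernatant concentration measured by LC-MS/MS against a calibration line from a DMSO stock.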

Data set [5] is described as follows: physchem. The settings on record: for solubility: pH 7, aqueous buffer, kinetic from dmso stock. The procedure:
Determination of the Kinetic Solubility in Phosphate Buffer
After shaking for approximately 30 seconds the reduction in light transmission of these samples, at 650 nm, was measured (Molecular Devices Spectromax UV/visible spectrophotometer). A second measurement was taken at approximately 30 seconds later.

Setting [6] is: fluorogenic substrate H-DPro-Phe-Arg-AFC.

Sequence of Human plasma kallikrein (P03952 391-638): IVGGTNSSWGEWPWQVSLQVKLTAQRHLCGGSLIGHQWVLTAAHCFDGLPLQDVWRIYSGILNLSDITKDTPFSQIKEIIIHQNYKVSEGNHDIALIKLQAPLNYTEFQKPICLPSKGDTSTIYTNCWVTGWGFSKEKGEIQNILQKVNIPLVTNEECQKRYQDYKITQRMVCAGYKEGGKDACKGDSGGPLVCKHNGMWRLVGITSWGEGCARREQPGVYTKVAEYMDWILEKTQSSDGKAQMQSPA
Sequence of Human plasma kallikrein (P03952 20-390 partner): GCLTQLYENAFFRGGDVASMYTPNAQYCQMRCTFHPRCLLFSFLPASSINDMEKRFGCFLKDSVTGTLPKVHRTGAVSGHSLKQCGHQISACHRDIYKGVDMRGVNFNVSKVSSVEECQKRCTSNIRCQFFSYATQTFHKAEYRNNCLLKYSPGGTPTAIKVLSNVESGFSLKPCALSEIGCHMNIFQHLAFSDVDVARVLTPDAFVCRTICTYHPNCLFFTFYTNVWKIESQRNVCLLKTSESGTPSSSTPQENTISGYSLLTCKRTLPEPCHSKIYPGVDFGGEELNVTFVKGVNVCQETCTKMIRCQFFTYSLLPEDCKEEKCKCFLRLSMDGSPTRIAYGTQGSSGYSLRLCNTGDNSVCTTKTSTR
Sequence of Factor XIIa (P00748 373-615): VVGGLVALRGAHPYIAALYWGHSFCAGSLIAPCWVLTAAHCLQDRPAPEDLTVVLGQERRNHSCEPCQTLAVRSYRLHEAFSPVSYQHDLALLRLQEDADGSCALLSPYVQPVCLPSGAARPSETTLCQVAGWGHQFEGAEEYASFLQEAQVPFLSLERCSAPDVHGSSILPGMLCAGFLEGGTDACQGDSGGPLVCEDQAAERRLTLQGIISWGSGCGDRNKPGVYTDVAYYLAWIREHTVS
Sequence of Human KLK1 (P06870 25-262): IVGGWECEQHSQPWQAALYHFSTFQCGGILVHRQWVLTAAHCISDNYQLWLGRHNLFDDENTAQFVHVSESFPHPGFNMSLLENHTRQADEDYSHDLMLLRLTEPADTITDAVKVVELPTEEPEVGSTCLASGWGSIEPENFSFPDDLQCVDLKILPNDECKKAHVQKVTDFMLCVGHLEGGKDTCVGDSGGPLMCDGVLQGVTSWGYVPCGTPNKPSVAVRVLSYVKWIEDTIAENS

Turning to `CCOc1ccc(C[C@@H](NC(=O)c2sccc2NC(C)=O)C(=O)N[C@@H](Cc2ccsc2)C(=O)NCc2ccc(CN)cc2)cc1` [Example 193, 3-Acetylamino-thiophene-2-carboxylic acid [(R)-1-[(S)-1-(4-aminomethyl-benzylcarbamoyl)-2-thiophen-3-yl-ethylcarbamoyl]-2-(4-ethoxy-phenyl)-ethyl]-amide], the IC50 was more than 10000 nM in data set [1], 25 nM in data set [2] (substrate H-DPro-Phe-Arg-AFC) and more than 10000 nM in data set [3] (Table 13).

Turning to `CCOc1ccc(C[C@@H](NC(=O)c2cc(Cl)cc(Cl)c2)C(=O)N[C@@H](Cc2ccccc2)C(=O)NCc2ccc(CN)cc2)cc1` [Example 94, N-[(R)-1-[(S)-1-(4-Aminomethyl-benzylcarbamoyl)-2-phenyl-ethylcarbamoy]-2-(4-ethoxy-phenyl)-ethyl]-3,5-dichloro-benzamide], the IC50 in data set [1] is more than 10000 nM; in data set [2] (substrate H-DPro-Phe-Arg-AFC), 1080 nM; in data set [3] (Table 13), more than 10000 nM.

Take `CCOc1ccc(C[C@@H](NC(=O)c2cccc(C)c2)C(=O)N[C@@H](Cc2cccnc2)C(=O)NCc2ccc(CN)cc2)cc1` [Example 189, N-[(R)-1-[(S)-1-(4-Aminomethyl-benzylcarbamoyl)-2-pyridin-3-yl-ethylcarbamoyl]-2-(4-ethoxy-phenyl)-ethyl]-3-methyl-benzamide]: the IC50 in data set [1] was more than 10000 nM; in data set [2] (substrate H-DPro-Phe-Arg-AFC) it was 23 nM; in data set [3] (Table 13) it was more than 10000 nM.

For the molecule `CCOc1ccc(C[C@@H](NC(=O)c2sccc2Cl)C(=O)N(C)[C@@H](Cc2ccccc2)C(=O)NCc2ccc(CN)cc2)cc1` [Example 196, 3-Chloro-thiophene-2-carboxylic acid [(R)-1-{[(S)-1-(4-aminomethyl-benzylcarbamoyl)-2-phenyl-ethyl]-methyl-carbamoyl}-2-(4-ethoxy-phenyl)-ethyl]-amide], the IC50 is more than 10000 nM in data set [1], 32 nM in data set [2] (substrate H-DPro-Phe-Arg-AFC) and 9900 nM in data set [3] (Table 13).

`CCOc1ccc(C[C@@H](NC(=O)c2sccc2NC(C)=O)C(=O)N[C@@H](Cc2csc3ccccc23)C(=O)NCc2ccc(CN)cc2)cc1` [Example 195, 3-Acetylamino-thiophene-2-carboxylic acid [(R)-1-[(S)-1-(4-aminomethyl-benzylcarbamoyl)-2-benzo[b]thiophen-3-yl-ethylcarbamoyl]-2-(4-ethoxy-phenyl)-ethyl]-amide]: the IC50 in data set [1] is more than 10000 nM; in data set [2] (substrate H-DPro-Phe-Arg-AFC), 14 nM; in data set [3] (Table 13) it was more than 10000 nM.

Turning to `CCOc1ccc(C[C@@H](NC(=O)c2ccccc2C)C(=O)N[C@@H](Cc2cccnc2)C(=O)NCc2ccc(CN)cc2)cc1` [Example 190, N-[(R)-1-[(S)-1-(4-Aminomethyl-benzylcarbamoyl)-2-pyridin-3-yl-ethylcarbamoyl]-2-(4-ethoxy-phenyl)-ethyl]-2-methyl-benzamide], the 50% inhibitory concentration (IC50) in data set [1] is more than 10000 nM; in data set [2] (substrate H-DPro-Phe-Arg-AFC) it was 28 nM; in data set [3] (Table 13), more than 10000 nM.

With `CCOc1ccc(C[C@@H](NC(=O)c2sccc2Cl)C(=O)N[C@@H](Cc2cscn2)C(=O)NCc2ccc(CN)cc2)cc1` [Example 184, 3-Chloro-thiophene-2-carboxylic acid [(R)-1-[(S)-1-(4-aminomethyl-benzylcarbamoyl)-2-thiazol-4-yl-ethylcarbamoyl]-2-(4-ethoxy-phenyl)-ethyl]-amide], the IC50 in data set [1] was more than 10000 nM; in data set [2] (substrate H-DPro-Phe-Arg-AFC), 10 nM; in data set [3] (Table 13), more than 10000 nM.

For `CCOc1ccc(C[C@@H](NC(=O)c2[nH]c(C)cc2C)C(=O)N[C@@H](Cc2ccccc2)C(=O)NCc2ccc(CN)cc2)cc1` [Example 191, 3,5-Dimethyl-1H-pyrrole-2-carboxylic acid [(R)-1-[(S)-1-(4-aminomethyl-benzylcarbamoyl)-2-phenyl-ethylcarbamoyl]-2-(4-ethoxy-phenyl)-ethyl]-amide], the IC50 was more than 10000 nM in data set [1], 20 nM in data set [2] (substrate H-DPro-Phe-Arg-AFC) and more than 10000 nM in data set [3] (Table 13).

Consider `NCc1ccc(CNC(=O)[C@H](Cc2ccccc2)NC(=O)C(Cc2ccc(OCC(F)(F)F)cc2)NC(=O)c2ccccc2)cc1` (stereo partly drawn) [Example 201, N-{(R,S)-1-[(S)-1-(4-Aminomethyl-benzylcarbamoyl)-2-phenyl-ethylcarbamoyl]-2-[4-(2,2,2-trifluoro-ethoxy)-phenyl]-ethyl}-benzamide], for which the IC50 in data set [1] was more than 10000 nM; in data set [2] (substrate H-DPro-Phe-Arg-AFC), 12 nM; in data set [3] (Table 13), more than 10000 nM.

Regarding `CCOc1ccc(C[C@@H](NC(=O)c2ccccc2)C(=O)N[C@@H](Cc2cccnc2)C(=O)NCc2ccc(CN)c(C)c2)cc1` [Example 192, N-[(R)-1-[(S)-1-(4-Aminomethyl-3-methyl-benzylcarbamoyl)-2-pyridin-3-yl-ethylcarbamoyl]-2-(4-ethoxy-phenyl)-ethyl]-benzamide], the IC50 in data set [1] is more than 10000 nM; in data set [2] (substrate H-DPro-Phe-Arg-AFC), 12 nM; in data set [3] (Table 13) it was more than 10000 nM.

For `CCOc1ccc(C[C@@H](NC(=O)c2[nH]ccc2C)C(=O)N[C@@H](Cc2csc3ccccc23)C(=O)NCc2ccc(CN)cc2)cc1` [Example 186, 3-Methyl-1H-pyrrole-2-carboxylic acid [(R)-1-[(S)-1-(4-aminomethyl-benzylcarbamoyl)-2-benzo[b]thiophen-3-yl-ethylcarbamoyl]-2-(4-ethoxy-phenyl)-ethyl]-amide], the figures for the IC50 in data set [1], in data set [2] (substrate H-DPro-Phe-Arg-AFC) and in data set [3] (Table 13) were more than 10000 nM, 14 nM and 3800 nM, respectively.

Regarding `CCOc1ccc(C[C@@H](NC(=O)/C=C/c2ccccc2)C(=O)N[C@@H](Cc2ccccc2)C(=O)NCc2ccc(CN)cc2)cc1` [Example 96, (E)-N-[(R)-1-[(S)-1-(4-Aminomethyl-benzylcarbamoyl)-2-phenyl-ethylcarbamoyl]-2-(4-ethoxy-phenyl)-ethyl]-3-phenyl-acrylamide], the IC50 in data set [1] is more than 10000 nM; in data set [2] (substrate H-DPro-Phe-Arg-AFC), 764 nM; in data set [3] (Table 13), more than 10000 nM.

On to `CCOc1ccc(C[C@@H](NC(=O)c2sccc2NC(C)=O)C(=O)N[C@@H](Cc2csc3ccccc23)C(=O)NCc2ccc(CN)cc2)cc1` [Example 188, 3-Acetylamino-thiophene-2-carboxylic acid [(R)-1-[(S)-1-(4-aminomethyl-benzylcarbamoyl)-2-benzo[b]thiophen-3-yl-ethylcarbamoyl]-2-(4-ethoxy-phenyl)-ethyl]-amide], for which the IC50 in data set [1] is more than 10000 nM; in data set [2] (substrate H-DPro-Phe-Arg-AFC), 36 nM; in data set [3] (Table 13) it was more than 10000 nM.

Turning to `CCOc1ccc(C[C@@H](NC(=O)c2sccc2N)C(=O)N[C@@H](Cc2cscn2)C(=O)NCc2ccc(CN)cc2)cc1` [Example 183, 3-Amino-thiophene-2-carboxylic acid [(R)-1-[(S)-1-(4-aminomethyl-benzylcarbamoyl)-2-thiazol-4-yl-ethylcarbamoyl]-2-(4-ethoxy-phenyl)-ethyl]-amide], the half-maximal inhibitory concentration (IC50) is more than 10000 nM in data set [1], 16 nM in data set [2] (substrate H-DPro-Phe-Arg-AFC) and more than 10000 nM in data set [3] (Table 13).

Regarding `CCOc1ccc(C[C@@H](NC(=O)c2ccc(Cl)cc2)C(=O)N[C@@H](Cc2ccccc2)C(=O)NCc2ccc(CN)cc2)cc1` [Example 55, N-[(R)-1-[(S)-1-(4-Aminomethyl-benzylcarbamoyl)-2-phenyl-ethylcarbamoyl]-2-(4-ethoxy-phenyl)-ethyl]-4-chloro-benzamide], the solubility at 1 h in data set [4] amounted to 1.5 µg/mL (≈ 2.45 µM). Besides, in data set [2] (setting [6]), the half-maximal inhibitory concentration (IC50) came to 31 nM. This molecule also showed a solubility in data set [5] of 36 µM (≈ 22.1 µg/mL).

As for `CCOc1ccc(C[C@@H](NC(=O)c2cccc3ccccc23)C(=O)N[C@@H](Cc2ccccc2)C(=O)NCc2ccc(CN)cc2)cc1` [Example 54, Naphthalene-1-carboxylic acid [(R)-1-[(S)-1-(4-aminomethyl-benzylcarbamoyl)-2-phenyl-ethylcarbamoyl]-2-(4-ethoxy-phenyl)-ethyl]-amide], in data set [4], the solubility at 1 h amounted to 0.8 µg/mL (≈ 1.27 µM). The IC50 in data set [2] (setting [6]) worked out at 83 nM. In data set [5], this molecule gave a solubility of 12 µM (≈ 7.55 µg/mL).

Turning to `CCOc1ccc(C[C@@H](NC(=O)c2ccccc2)C(=O)N(C)[C@@H](Cc2ccccc2)C(=O)NCc2ccc(CN)cc2)cc1` [Example 38, N-[(R)-1-{[(S)-1-(4-Aminomethyl-benzylcarbamoyl)-2-phenyl-ethyl]-methyl-carbamoyl}-2-(4-ethoxy-phenyl)-ethyl]-benzamide], the solubility at 1 h in data set [4] is 14.6 µg/mL (≈ 24.5 µM). Moreover, the IC50 in data set [2] (setting [6]) is 47 nM; in data set [3] (Table 12) it was more than 10000 nM. The same molecule had a solubility in PO4 buffer in data set [5] (pH 7) of more than 235 µM.

For `CCOc1ccc(C[C@@H](NC(=O)c2ccc(Cl)cc2Cl)C(=O)N[C@@H](Cc2ccccc2)C(=O)NCc2ccc(CN)cc2)cc1` [Example 58, N-[(R)-1-[(S)-1-(4-Aminomethyl-benzylcarbamoyl)-2-phenyl-ethylcarbamoyl]-2-(4-ethoxy-phenyl)-ethyl]-2,4-dichloro-benzamide], the solubility at 1 h in data set [4] is 4.1 µg/mL (≈ 6.33 µM). Also, in data set [2] (setting [6]), the IC50 came out at 170 nM. The molecule also registered a solubility in data set [5] of 36 µM (≈ 23.3 µg/mL).

Usually IC50 stands for the midpoint of a concentration-inhibition curve. The term solubility denotes how much of the substance goes into solution per volume.
